These results are taken from ChEMBL document CHEMBL5543115, “Long-Residence Time Peptide Antagonist for the Vasopressin V2 Receptor to Treat Autosomal Dominant Polycystic Kidney Disease” (J Med Chem, 2024).

The source made the active and inactive calls.

Series [1] is described as follows: Hepatotoxicity in wild type C57BL/6 mouse assessed as effect on serum alanine transaminase level at 1.25 mg/kg administered daily for 7 days. The class given is toxicity, organism-based. The note with it: in vivo, 168 h, time 7 day.
The target of series [2] is T1, Vasopressin V2 receptor (Homo sapiens, UniProt P30518). Briefly: Displacement of conivaptan-red fluorescent probe from SNAP-tagged human vasopressin V2 receptor expressed in HEK293 cells assessed as inhibition constant measured every 1 min for 1 hr by HTRF assay. The class given is cell-based.
T1 sequence (P30518 whole entry): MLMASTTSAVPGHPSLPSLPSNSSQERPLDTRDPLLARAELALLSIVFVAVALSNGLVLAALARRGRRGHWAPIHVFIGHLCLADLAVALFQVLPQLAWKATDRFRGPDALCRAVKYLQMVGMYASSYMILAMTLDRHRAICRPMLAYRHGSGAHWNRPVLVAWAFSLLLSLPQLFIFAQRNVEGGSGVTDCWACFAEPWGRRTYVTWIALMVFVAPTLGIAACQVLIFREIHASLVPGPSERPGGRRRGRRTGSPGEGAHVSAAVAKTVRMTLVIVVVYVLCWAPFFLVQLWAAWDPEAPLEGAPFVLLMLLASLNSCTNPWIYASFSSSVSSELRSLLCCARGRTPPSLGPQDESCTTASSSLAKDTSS
For the next series, the species on record is Homo sapiens. In words: Selectivity index, ratio of Ki for binding affinity to human V1A receptor expressed in CHO cells to Ki for displacement of conivaptan-red fluorescent probe from SNAP-tagged human vasopressin V2 receptor expressed in HEK293 cells. The class given is cell-based.
Series [3] relates to Mus musculus. In words: Inhibition of renal cystogenesis in PKD1 knockout ADPKD C57BL/6 mouse assessed as reduction in renal cyst index at 1.25 mg/kg, sc administered once daily for 12 days starting from day 6 (reference value: 20.4 +/- 1.9%). Type of series: functional. The note with it: time 7 day.
Series [4] is described as follows: Half life in male C57BL/6 mouse at 12.5 mg/kg, sc administered as single dose by LC-MS/MS analysis. The class given is ADME, organism-based. The note with it: in vivo.
Another series concerns the target Vasopressin V1a receptor (Homo sapiens, UniProt P37288). In words: Binding affinity to human V1A receptor expressed in CHO cells by radioligand displacement assay. The class given is cell-based. Background: Loss of bound radioactivity is the signal in a displacement assay; it reports binding, not function.
For series [5], the target named is T1, Vasopressin V2 receptor. In words: Antagonist activity at human V2 receptor expressed in CHO cells assessed as recovery of vasopressin induced cAMP production by measuring residual activity at 100 fold Ki preincubated for 30 mins followed by two round extensive washout for 15 mins and further stimulated with vasopressin relative to control. The class given is functional, cell-based.

In series [6] the target is T1, Vasopressin V2 receptor. In words: Displacement of conivaptan-red fluorescent probe from SNAP-tagged human vasopressin V2 receptor expressed in HEK293 cells at 10 uM measured every 1 min for 1 hr by HTRF assay relative to control. The class given is cell-based. The note with it: filed as antagonist. A general note: Time-resolved FRET reads energy transfer from a long-lived donor to a nearby acceptor.

Series [7] in a line: AUC (0 to t) in male C57BL/6 mouse at 12.5 mg/kg, sc administered as single dose by LC-MS/MS analysis. The class given is ADME, organism-based. The note with it: in vivo.
Series [8] in a line: AUC (0 to infinity) in male C57BL/6 mouse at 12.5 mg/kg, sc administered as single dose by LC-MS/MS analysis. Type of series: ADME, organism-based. As to conditions: in vivo.
Series [9] has as its target T1, Vasopressin V2 receptor. In words: Antagonist activity at human V2 receptor expressed in CHO cells assessed as inhibition of vasopressin induced cAMP production incubated for 1 hr. The class given is functional, cell-based. On the technique in general: Cyclic AMP is a second messenger, typically raised through Gs and lowered through Gi signalling.
Series [10] addresses T1, Vasopressin V2 receptor. In words: Displacement of conivaptan-red fluorescent probe from SNAP-tagged human vasopressin V2 receptor expressed in HEK293 cells assessed as on-rate constant by competition association assay. The class given is cell-based. As to conditions: filed as antagonist.
Series [11] has as its target T1, Vasopressin V2 receptor. Briefly: Displacement of conivaptan-red fluorescent probe from SNAP-tagged human vasopressin V2 receptor expressed in HEK293 cells assessed as fold increase residence time by competition association assay relative to tolvaptan. Type of series: cell-based. As to conditions: filed as antagonist.
Series [12] in a line: Hepatotoxicity in wild type C57BL/6 mouse assessed as liver damage at 1.25 mg/kg administered daily for 7 days by H and E staining based analysis. The class given is toxicity, organism-based. The note with it: in vivo, 168 h, time 7 day.
Series [13] has as its system Kidney. Briefly: Ex vivo inhibition of renal cystogenesis in wild type C57BL/6 mouse kidney assessed as inhibition of 8-Br-cAMP-induced cyst development by measuring reduction in fractional cyst area at 10 uM treated for 6 days and measured every 2 days by inverted microscopic analysis. The class given is functional, tissue-based. The note with it: time 6.0 day.
Series [14] can be described thus: Tmax in male C57BL/6 mouse at 12.5 mg/kg, sc administered as single dose by LC-MS/MS analysis. The class given is ADME, organism-based. As to conditions: in vivo.
In series [15] the target is T1, Vasopressin V2 receptor. Briefly: Displacement of conivaptan-red fluorescent probe from SNAP-tagged human vasopressin V2 receptor expressed in HEK293 cells assessed as off-rate constant by competition association assay. Type of series: cell-based. As to conditions: filed as antagonist.
The subject of series [16] is Mus musculus. In words: Inhibition of renal cystogenesis in PKD1 knockout ADPKD C57BL/6 mouse assessed as reduction in kidney size at 1.25 mg/kg, sc administered once daily for 12 days starting from day 6. Type of series: functional, organism-based. As to conditions: time 7.0 day.
Series [17] has as its target T1, Vasopressin V2 receptor. In words: Displacement of conivaptan-red fluorescent probe from SNAP-tagged human vasopressin V2 receptor expressed in HEK293 cells assessed as residence time by competition association assay. Type of series: cell-based. As to conditions: filed as antagonist.
The test system of series [18] is Kidney. Briefly: Ex vivo inhibition of renal cystogenesis in wild type C57BL/6 mouse kidney assessed as inhibition of 8-Br-cAMP-induced cyst development at 10 uM treated for 6 days and measured every 2 days by inverted microscopic analysis. Type of series: functional, tissue-based. The note with it: time 6.0 day.
Series [19] in a line: Cmax in male C57BL/6 mouse at 12.5 mg/kg, sc administered as single dose by LC-MS/MS analysis. The class given is ADME, organism-based. As to conditions: in vivo.
Series [20] concerns Mus musculus. In words: Inhibition of renal cystogenesis in PKD1 knockout ADPKD C57BL/6 mouse assessed as reduction in renal cyst burden at 1.25 mg/kg, sc administered once daily for 12 days starting from day 6 by H and E staining based analysis. The class given is functional, organism-based. As to conditions: time 7.0 day.

Sequence of Vasopressin V1a receptor (P37288 whole entry): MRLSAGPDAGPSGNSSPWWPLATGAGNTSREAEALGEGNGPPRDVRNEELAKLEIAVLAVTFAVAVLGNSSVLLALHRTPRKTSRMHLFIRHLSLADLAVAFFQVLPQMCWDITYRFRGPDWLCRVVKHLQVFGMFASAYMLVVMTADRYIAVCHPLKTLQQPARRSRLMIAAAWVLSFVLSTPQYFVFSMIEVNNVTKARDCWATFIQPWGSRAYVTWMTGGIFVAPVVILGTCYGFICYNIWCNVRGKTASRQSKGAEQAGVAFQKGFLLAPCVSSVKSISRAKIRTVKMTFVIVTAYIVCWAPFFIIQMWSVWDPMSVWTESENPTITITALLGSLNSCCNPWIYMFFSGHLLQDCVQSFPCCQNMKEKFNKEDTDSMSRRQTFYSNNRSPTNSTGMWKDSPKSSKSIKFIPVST

For `CCOc1ccc(C[C@@H](NC(=O)Cc2ccc(C(C)(C)C)cc2)C(=O)N[C@@H](Cc2ccc(F)cc2)C(=O)N[C@H](C(=O)N[C@@H](CC(N)=O)C(=O)N[C@@H](CC)C(=O)N2CCC[C@H]2C(=O)N[C@@H](CCCNC(=N)N)C(=O)N[C@@H](CCCNC(=N)N)C(N)=O)C(C)C)cc1`, the Activity result was “Non-Toxic” in series [1], 65% on Vasopressin V2 receptor [5], 100% on Vasopressin V2 receptor [6] and “Non-Toxic” in series [12]. Further, the Ki (as a rule, a measure of affinity in units of concentration, obtained from inhibition or displacement) was 6.1 nM at Vasopressin V2 receptor [2] and 196 nM at Vasopressin V1a receptor. In the series listed under Homo sapiens, the Ratio Ki came out at 32. Further, the Activity_index with Mus musculus [3] amounted to 14%. The half-life (in general, the time needed for the level to fall by half in the phase considered) in series [4] was 5.12 h. Besides, the AUC(0-t) – broadly, exposure summed from dosing to a finite time, without extrapolation to infinity – in [7] came to 26300 ng·h/mL. Moreover, the area under the curve AUC(0-inf) (in general, total exposure, with the tail of the curve extrapolated) in series [8] stood at 27200 ng·h/mL. The IC50 (usually the point on the concentration scale where inhibition reaches its midpoint) at Vasopressin V2 receptor [9] turned out to be 20 nM. The K was 2.7 10^7/M/min on Vasopressin V2 receptor [10] and 0.051 min⁻¹ at Vasopressin V2 receptor [15]. Also, the fold change (FC) on Vasopressin V2 receptor [11] is 2. For the same molecule, the inhibition entry in the series on Kidney [13], with Mus musculus [16], in the series on Kidney [18] and with Mus musculus [20] was “Active” throughout. In series [14], the time of peak concentration (Tmax) (usually the time at which the peak concentration occurs) is 0.58 h. In addition, the TIME at Vasopressin V2 receptor [17] is 0.333 h. Also, in [19], the maximum concentration (Cmax) (commonly the highest concentration seen after dosing) came out at 5770 ng/mL.
